13 compounds from ChEMBL document CHEMBL1932968, “Cyclic amino acid linkers stabilizing key loops of brain derived neurotrophic factor” (Bioorg Med Chem Lett, 2012) can be followed below.

The target of test [1] is BDNF/NT-3 growth factors receptor (Rattus norvegicus) (UniProt Q63604). Put plainly: Agonist activity at TrkB in E18 Sprague-Dawley rat hippocampal neurons assessed as induction of TrkB autophosphorylation at Tyr490 at 100 uM after 1 hr by Western blotting analysis. The test is classed as functional, tissue-based. Particulars: Hippocampus. (In general: In western blotting, separated proteins are transferred to a membrane and probed.)

The target is the same in test [2]. As to the kind of experiment: Antagonist activity at TrkB in E18 Sprague-Dawley rat hippocampal neurons assessed as inhibition of BDNF-induced TrkB phosphorylation at Tyr490 at 100 uM preincubated for 1 hr followed by BDNF induction for 10 mins by Western blotting analysis. In kind it is functional, tissue-based. Particulars: Hippocampus.

The source made the active and inactive calls. The calls are words filed in the database; no cut-off is given here. *1 amine or outer side, *2 acyl side, *3 side chain or, on linkers, in order; H or OH if unused. Where a SMILES comes first, the peptide text is derived from it. [ ]: non-standard residue; d: D form. ACHC(1S,2S) = O=C([C@H]1CCCC[C@@H]1N[*:1])[*:2]; X2 = C[C@@]1(C(=O)[*:2])CCN1[*:1]; X1 = C[C@]1(C(=O)[*:2])CCN1[*:1]; Aze = O=C(O)[C@@H]1CCN1; βAla = NCCC(=O)O

BDNF/NT-3 growth factors receptor (Rattus norvegicus), sequence (Q63604 whole entry): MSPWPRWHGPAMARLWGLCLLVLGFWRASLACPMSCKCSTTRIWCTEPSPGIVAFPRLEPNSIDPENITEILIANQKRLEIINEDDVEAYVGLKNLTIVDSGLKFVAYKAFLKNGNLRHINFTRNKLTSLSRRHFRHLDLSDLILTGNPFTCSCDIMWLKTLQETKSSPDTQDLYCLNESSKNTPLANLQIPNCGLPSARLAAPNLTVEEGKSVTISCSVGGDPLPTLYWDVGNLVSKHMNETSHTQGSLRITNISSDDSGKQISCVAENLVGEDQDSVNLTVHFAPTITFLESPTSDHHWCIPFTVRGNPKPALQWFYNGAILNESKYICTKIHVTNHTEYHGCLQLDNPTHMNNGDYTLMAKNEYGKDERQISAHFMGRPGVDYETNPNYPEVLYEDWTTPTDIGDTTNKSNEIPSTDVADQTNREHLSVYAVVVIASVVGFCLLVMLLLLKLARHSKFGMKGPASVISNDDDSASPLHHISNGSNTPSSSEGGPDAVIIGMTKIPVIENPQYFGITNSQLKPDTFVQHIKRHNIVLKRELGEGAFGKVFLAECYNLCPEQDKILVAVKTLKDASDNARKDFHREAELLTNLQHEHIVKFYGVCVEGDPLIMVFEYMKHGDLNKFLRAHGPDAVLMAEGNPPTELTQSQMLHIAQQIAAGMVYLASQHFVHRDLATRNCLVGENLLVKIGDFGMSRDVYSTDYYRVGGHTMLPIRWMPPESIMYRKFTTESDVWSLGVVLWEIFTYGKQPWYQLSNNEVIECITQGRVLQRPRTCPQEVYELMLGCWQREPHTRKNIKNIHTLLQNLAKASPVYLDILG

In the case of `CC(C)[C@@H]1NC(=O)[C@@]2(C)CCN2C(=O)CCNC(=O)[C@H](CCCCN)NC(=O)[C@H](CO)NC1=O`, the result in test [1] was inactive. For the same compound, the inhibition entry in test [2] was “inactive”. Take `CC(C)[C@@H]1NC(=O)[C@H]2CCCC[C@@H]2NC(=O)CCNC(=O)[C@H](CCCCN)NC(=O)[C@H](CO)NC1=O`: the result in test [1] was inactive. In addition, in test [2], the inhibition result was “inactive”. For the compound `CC(C)[C@@H]1NC(=O)[C@]2(C)CCN2C(=O)CCNC(=O)[C@H](CCCCN)NC(=O)[C@H](CO)NC1=O`, in test [1], the result was inactive. In addition, the inhibition result in test [2] is “inactive”. As to `N=C(N)NCCC[C@@H]1NC(=O)[C@H](CCCCN)NC(=O)[C@H](CCCCN)NC(=O)[C@H](CO)NC(=O)[C@H](CC(=O)O)NC(=O)[C@H]2CCCC[C@@H]2NC1=O` (cyclo(DSKKR[ACHC(1S,2S)])), the result in test [1] was inactive. Besides, in test [2], the inhibition entry is “Active”.

Regarding `N=C(N)NCCC[C@@H]1NC(=O)[C@H]2CCCC[C@@H]2NC(=O)[C@H](CC(=O)O)NC(=O)[C@H](CO)NC(=O)[C@H](CCCCN)NC(=O)[C@H](CCCCN)NC(=O)[C@H](CCCNC(=N)N)NC(=O)[C@H]2CCCC[C@@H]2NC(=O)[C@H](CC(=O)O)NC(=O)[C@H](CO)NC(=O)[C@H](CCCCN)NC(=O)[C@H](CCCCN)NC1=O` (cyclo(D[ACHC(1S,2S)]RKKSD[ACHC(1S,2S)]RKKS)), the result in test [1] was inactive. The inhibition entry in test [2] was “Active”.

On to `CC(C)[C@@H]1NC(=O)[C@H]2CCCC[C@@H]2NC(=O)CNC(=O)[C@H](CCCCN)NC(=O)[C@H](CO)NC1=O` (cyclo(G[ACHC(1S,2S)]VSK)), for which the result in test [1] was inactive. For the same compound, the inhibition result in test [2] is “inactive”.

For `CC(C)[C@@H]1NC(=O)[C@H]2CCCC[C@@H]2NC(=O)CNC(=O)[C@H](CCCCN)NC(=O)[C@H](CO)NC(=O)[C@H](C(C)C)NC(=O)[C@H]2CCCC[C@@H]2NC(=O)CNC(=O)[C@H](CCCCN)NC(=O)[C@H](CO)NC1=O` (cyclo(G[ACHC(1S,2S)]VSKG[ACHC(1S,2S)]VSK)), in test [1], the result was inactive.

As to `CC(C)[C@@H]1NC(=O)[C@]2(C)CCN2C(=O)CNC(=O)[C@H](CCCCN)NC(=O)[C@H](CO)NC(=O)[C@H](C(C)C)NC(=O)[C@@]2(C)CCN2C(=O)CNC(=O)[C@H](CCCCN)NC(=O)[C@H](CO)NC1=O` (cyclo(G[X1]VSKG[X2]VSK)), the outcome in test [1] was inactive. Moreover, the inhibition entry in test [2] is “Active”. Consider `CC(C)[C@@H]1NC(=O)[C@H]2CCCC[C@@H]2NC(=O)CCNC(=O)[C@H](CCCCN)NC(=O)[C@H](CO)NC(=O)[C@H](C(C)C)NC(=O)[C@H]2CCCC[C@@H]2NC(=O)CCNC(=O)[C@H](CCCCN)NC(=O)[C@H](CO)NC1=O` (cyclo(K[βAla][ACHC(1S,2S)]VSK[βAla][ACHC(1S,2S)]VS)), for which, in test [1], the outcome was inactive. As to `CC(C)[C@@H]1NC(=O)[C@@H]2CCN2C(=O)CNC(=O)[C@H](CCCCN)NC(=O)[C@H](CO)NC1=O` (cyclo([Aze]VSKG)), the outcome in test [1] was inactive. Also, the inhibition entry in test [2] was “inactive”.

With `CC(C)[C@@H]1NC(=O)[C@@H]2CCN2C(=O)CNC(=O)[C@H](CCCCN)NC(=O)[C@H](CO)NC(=O)[C@H](C(C)C)NC(=O)[C@@H]2CCN2C(=O)CNC(=O)[C@H](CCCCN)NC(=O)[C@H](CO)NC1=O` (cyclo([Aze]VSKG[Aze]VSKG)), the outcome in test [1] was inactive. `CC(C)[C@@H]1NC(=O)[C@@H]2CCN2C(=O)CCNC(=O)[C@H](CCCCN)NC(=O)[C@H](CO)NC1=O` (cyclo([Aze]VSK[βAla])): in test [1], the outcome was inactive. In addition, the inhibition result in test [2] was “inactive”. For the compound `CC(C)[C@@H]1NC(=O)C2(C)CCN2C(=O)CNC(=O)[C@H](CCCCN)NC(=O)[C@H](CO)NC1=O` (mixture of isomers), the result in test [1] was inactive. For the same compound, the inhibition entry in test [2] is “inactive”.
